US9521847B2, “Synergistic weed control from applications of pyridine carboxylic acid herbicides and synthetic auxin herbicides and/or auxin transport inhibitors” (Dow AgroSciences LLC, priority 2014, dated 2016)
Several values for one entry are separate records, joined by “and”; a condition that tells them apart may be missing. Identical values can stand only once. Like-named read-outs stand apart in the source and are kept apart here.

Tests used:
[1] = system: turnip (Brassica rapa, BRSRR); assay: Greenhouse postemergence trial, % visual injury; format: in vivo; settings: for % visual injury, Obs: BRSRR, compound 1 (EC) 5 g ae/ha
[2] = system: common lambsquarters (CHEAL, Chenopodium album L.); assay: Greenhouse postemergence trial, % visual injury; format: in vivo; settings: for % visual injury, Obs: CHEAL
[3] = system: sunflower (Helianthus annus, HELAN); assay: Greenhouse postemergence trial, % visual injury; format: in vivo; settings: for % visual injury, Obs: HELAN
[4] = system: velvetleaf (Abutilon theophrasti, ABUTH); assay: Greenhouse postemergence trial, % visual injury; format: in vivo
[5] = system: kochia (KCHSC, Kochia scoparia); assay: Greenhouse postemergence trial, % visual injury; format: in vivo; settings: for % visual injury, Obs.: Table 60
Experimental: Following the protocol in Example 1, compound 1 and compound 2 were combined with 2,4 D EHE (EC) and applied to kochia (KCHSC, Kochia scoparia) and the phytotoxicity of the herbicidal compositions was measured.
Following the protocol in Example 1, compound 1 (EC) and Compound 2 (SC) were combined with diflufenzopyr and applied to kochia (Kochia scoparia, KCHSC) and the phytotoxicity of the herbicidal composition was measured.

[6] = system: wild buckwheat (Polygonum convolvulus, POLCO); assay: Greenhouse postemergence trial, % visual injury; format: in vivo; settings: for % visual injury, Obs: POLCO
[7] = system: poinsettia (Euphorbia heterophylla, EPHHL); assay: Greenhouse postemergence trial, % visual injury
maize (ZEAMX) = settings: maize (Zea mays), in vivo
[8] = system: pigweed (AMARE, Amaranthus retroflexus); assay: Greenhouse postemergence trial, % visual injury; format: in vivo; settings: for % visual injury, Obs: AMARE
[9] = system: common chickweed (Stellaria media, STEME); assay: Greenhouse postemergence trial, % visual injury; format: in vivo; settings: for % visual injury, Obs: STEME
[10] = system: winter rape (BRSNW, Brassica napus); assay: Greenhouse postemergence trial, % visual injury; format: in vivo; settings: for % visual injury, Obs: BRSNW
[11] = system: nutsedge (Cyperus esculentus, CYPES); assay: Greenhouse postemergence trial, % visual injury; format: in vivo
[12] = system: Russian thistle (Salsola iberica, SASKR); assay: Greenhouse postemergence trial, % visual injury; format: in vivo
[13] = system: ivyleaf morningglory (Ipomoea hederacea, IPOHE); assay: Greenhouse postemergence trial, % visual injury
[14] = system: spring rape (Brassica napus, BRSNN); assay: Greenhouse postemergence trial, % visual injury; settings: for plant injury at 5 g/ha: Brassica napus, post-emergence
[15] = system: wild mustard (Sinapis arvensis, SINAR); assay: Greenhouse postemergence trial, % visual injury; format: in vivo
common rice (ORYSA) = settings: in vivo
[16] = system: wild pansy (Viola tricolor, VIOTR); assay: Greenhouse postemergence trial, % visual injury; settings: for % visual injury, Obs: VIOTR
spring barley (HORVS) = settings: in vivo; for % visual injury (Obs): Hordeum vulgare (spring barley)
[17] = system: Canadian thistle (CIRAR, Cirsium arvense); assay: Greenhouse postemergence trial, % visual injury; settings: for % visual injury, Obs: CIRAR; for pest or weed control at 5 g/ha: Cirsium arvense, post-emergence;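 on all read-outs here: plants sprayed at second to third true leaf stage, injury scored visually 20-22 d later against solvent-blank sprayed controls, 0 meaning no injury and 100 complete kill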
[18] = system: grain sorghum (Sorghum vulgare, SORVU); assay: Greenhouse postemergence trial, % visual injury; format: in vivo
[19] = compound 1 (EC) 5 g ae/ha, Table 62
[20] = compound 1 (EC) 5 g ae/ha, Table 63
[21] = read-out: % visual injury (Obs)

SMILES: Nc1c(F)c(-c2ccc3cc[nH]c3c2F)nc(C(=O)O)c1Cl [compound 1]
- % visual injury, Obs ([1]; Table 62): 50%
- % visual injury, Obs ([1]; Table 63): 50%
- % visual injury (Obs) ([1]; compound 1 SC 2.5 g ae/ha): 45%
- % visual injury (Obs) ([1]; compound 1 SC 5 g ae/ha): 62%
- % visual injury, Obs ([2]; 5 g ae/ha): 90%
- % visual injury, Obs ([2]; 10 g ae/ha): 100%
- % visual injury (Obs) ([2]; compound 1 (EC) 5 g ae/ha): 80%
- % visual injury, Obs ([3]; 5 g ae/ha): 80%
- % visual injury, Obs [3, 19]: 70%
- % visual injury, Obs [3, 20]: 70%
- % visual injury (Obs) ([3]; compound 1 (EC) 5 g ae/ha): 80%
- pest or weed control at 5 g/ha ([4]; Abutilon theophrasti, post-emergence, ABUTH, 5 g ae/ha, read-out: % visual injury, Obs): 70%
- pest or weed control at 10 g/ha ([4]; Abutilon theophrasti, post-emergence, ABUTH, 10 g ae/ha, read-out: % visual injury, Obs): 60%
- pest or weed control at 5 g/ha ([4]; Abutilon theophrasti, post-emergence, ABUTH, compound 1 (EC) 5 g ae/ha, Table 62, read-out: % visual injury, Obs): 60%
- pest or weed control at 5 g/ha ([4]; Abutilon theophrasti, post-emergence, ABUTH, compound 1 (EC) 5 g ae/ha, Table 63, read-out: % visual injury, Obs): 60%
- % visual injury (Obs) ([4]; compound 1 (EC) 5 g ae/ha): 70%
- % visual injury Obs ([5]; 8.75 g ae/ha alone, 20-22 d): 43%
- pest or weed control at 5 g/ha ([5]; Bassia scoparia, post-emergence, KCHSC, 5 g ae/ha, read-out: % visual injury, Obs): 65%
- pest or weed control at 10 g/ha ([5]; Bassia scoparia, post-emergence, KCHSC, 10 g ae/ha, read-out: % visual injury, Obs): 60%
- % visual injury, Obs. ([5]; KCHSC, compound 1 (EC) 8.75 g ae/ha): 78%
- % visual injury, Obs. ([5]; KCHSC, compound 1 (EC) 17.5 g ae/ha): 80%
- % visual injury (Obs) ([5]; compound 1 (EC) 5 g ae/ha): 65%
- % visual injury (Obs) ([5]; compound 1 SC 5 g ae/ha): 75%
- % visual injury (Obs) ([5]; compound 1 SC 10 g ae/ha): 100%
- % visual injury, Obs ([6]; 10 g ae/ha): 30%
- % visual injury, Obs [6, 19]: 65%
- % visual injury, Obs [6, 20]: 65%
- % visual injury (Obs) ([6]; compound 1 SC 10 g ae/ha): 30% and 40%
- pest or weed control at 5 g/ha ([7]; Euphorbia heterophylla, post-emergence, read-out: % visual injury, Obs, EPHHL, 5 g ae/ha): 95%
- pest or weed control at 10 g/ha ([7]; Euphorbia heterophylla, post-emergence, read-out: % visual injury, Obs, EPHHL, 10 g ae/ha): 97%
- % visual injury (Obs) ([7]; compound 1 (EC) 5 g ae/ha): 95%
- % visual injury (Obs) (maize (ZEAMX)): 5%
- % visual injury, Obs ([8]; 5 g ae/ha): 75%
- % visual injury, Obs ([8]; 10 g ae/ha): 97%
- % visual injury (Obs) ([8]; compound 1 (EC) 5 g ae/ha): 70%
- % visual injury (Obs) ([8]; compound 1 (EC) 10 g ae/ha): 85%
- % visual injury (Obs) ([8]; compound 1 SC 5 g ae/ha): 70%
- % visual injury (Obs) ([8]; compound 1 SC 10 g ae/ha): 85%
- % visual injury, Obs ([9]; 5 g ae/ha): 60% and 70%
- % visual injury, Obs ([9]; 10 g ae/ha): 70%
- % visual injury (Obs) ([9]; compound 1 (EC) 5 g ae/ha): 60%
- % visual injury, Obs ([10]; 5 g ae/ha): 40%
- % visual injury, Obs ([10]; 10 g ae/ha): 45%
- % visual injury, Obs [10, 19]: 30%
- % visual injury, Obs [10, 20]: 50%
- % visual injury (Obs) ([10]; compound 1 (EC) 5 g ae/ha): 40% and 70%
- % visual injury (Obs) ([10]; compound 1 (EC) 10 g ae/ha): 100% and 80%
- % visual injury (Obs) ([10]; compound 1 SC 5 g ae/ha): 30%
- % visual injury (Obs) ([10]; compound 1 SC 10 g ae/ha): 60%
- % visual injury, Obs ([11]; CYPES, 5 g ae/ha): 30%
- pest or weed control at 5 g/ha ([11]; Cyperus, post-emergence, 5 g ae/ha alone, 20-22 d, read-out: % visual injury Obs): 25%
- % visual injury (Obs) ([11]; compound 1 (EC) 5 g ae/ha): 30%
- % visual injury (Obs) ([12]; compound 1 (EC) 10 g ae/ha): 65% and 60%
- % visual injury (Obs) ([12]; compound 1 SC 5 g ae/ha): 65%
- % visual injury (Obs) ([12]; compound 1 SC 10 g ae/ha): 80%
- pest or weed control at 5 g/ha ([13]; Ipomoea, post-emergence, read-out: % visual injury, Obs, IPOHE, 5 g ae/ha): 20%
- pest or weed control at 10 g/ha ([13]; Ipomoea, post-emergence, read-out: % visual injury, Obs, IPOHE, 10 g ae/ha): 10%
- % visual injury (Obs) ([13]; compound 1 (EC) 5 g ae/ha): 20%
- % visual injury, Obs ([14]; BRSNN, compound 1 (EC) 5 g ae/ha, Table 62): 50%
- plant injury at 5 g/ha [14, 21]: 50%
- plant injury at 5 g/ha ([14]; read-out: % visual injury Obs): 60%
- plant injury at 5 g/ha ([14]; read-out: % visual injury, Obs): 50%
- % visual injury (Obs) ([15]; compound 1 (EC) 5 g ae/ha): 100% and 95%
- % visual injury (Obs) ([15]; compound 1 (EC) 10 g ae/ha): 100%
- % visual injury (Obs) ([15]; compound 1 SC 5 g ae/ha): 100%
- % visual injury (Obs) ([15]; compound 1 SC 10 g ae/ha): 80%
- % visual injury (Obs) (common rice (ORYSA)): 0%
- % visual injury, Obs ([16]; 10 g ae/ha): 10%
- % visual injury, Obs [16, 19]: 5%
- % visual injury, Obs [16, 20]: 5%
- pest or weed control at 5 g/ha ([16]; Viola tricolor, post-emergence, read-out: % visual injury Obs): 25%
- % visual injury (Obs) ([16]; compound 1 (EC) 5 g ae/ha): 10%
- % visual injury (Obs) ([16]; compound 1 SC 2.5 g ae/ha): 13%
- % visual injury (Obs) ([16]; compound 1 SC 5 g ae/ha): 23%
- % visual injury (Obs) (spring barley (HORVS)): 0%
- % visual injury (Obs) (spring barley (HORVS); sc): 0%
- % visual injury, Obs (spring barley (HORVS); spring barley (Hordeum vulgare)): 0%
- % visual injury, Obs ([17]; 5 g ae/ha): 10%
- % visual injury, Obs [17, 20]: 10%
- pest or weed control at 5 g/ha [17, 21]: 10%
- pest or weed control at 5 g/ha ([17]; read-out: % visual injury Obs): 20%
- % visual injury (Obs) ([17]; compound 1 (EC) 5 g ae/ha): 10%
- % visual injury Obs ([18]; 5 g ae/ha alone, 20-22 d): 13%
- % visual injury, Obs ([18]; SORVU, 10 g ae/ha): 50%
- % visual injury (Obs) ([18]; compound 1 (EC) 5 g ae/ha): 30%
